Test results from patent US20230414557A1, “NEW THERAPY CONCEPT FOR THE TREATMENT OF CORONA INFECTIONS, ESPECIALLY COVID-19 INFECTIONS” (priority 2020, published 2023).

Columns and labels:
[1] = system: superoxide production (O2^−-production); assay: PMA-stimulated superoxide production (O2−-production) of human monocytes in vitro, INT formazan; type: cell-based; conditions: RPMI-1640, 20 hours
[2] = system: corona viruses; type: cell-based, human
[3] = system: COVID-19; assay: thrombocytes from patients suffering from COVID-19 incubated with 1,8-cineole; type: cell-based, human; conditions: thrombocytes from COVID-19 patients incubated with 1,8-cineole
Text: This antiviral effect of 1,8-cineole in COVID-19 infections is completely unexpected.

[4] = system: IL-1beta; assay: LPS-stimulated production of IL-1beta in human monocytes in vitro (ELISA); type: cell-based; conditions: for IL-1beta / effect vs. control inhibition (%): LPS-stimulated human monocytes
Experimental: In cell culture supernatants, the production of IL-1beta is determined by ELISA (Cayman Chemical, Ann Arbor, Michigan, USA).

[5] = system: superoxide dismutases (SOD); assay: activity of superoxide dismutases; type: cell-based
[6] = system: NO-production; assay: NO-production in stimulated human monocytes in vitro; type: cell-based; conditions: 20 hours
[7] = cited from earlier work
[8] = system: TNF-alpha (tumor necrosis factor-alpha); assay: production of TNF-alpha in human monocytes of volunteers; type: cell-based; conditions: 1,8-cineole alone
[9] = system: hydrogen peroxide (H2O2); assay: production of hydrogen peroxide; type: cell-based; conditions: even at lower concentrations and in the therapeutic range
[10] = system: IL-8 (interleukin-8); assay: production of IL-8 in human monocytes of volunteers; type: cell-based; conditions: 1,8-cineole alone
[11] = system: COVID-19; conditions: human, in vivo; cited from earlier work
[12] = 1,8-cineole 0.0015 μg/ml (10^−8 mol/l)
[13] = 1,8-cineole 1.2 μg/ml (8 × 10^−6 mol/l)
[14] = 1,8-cineole 1.5 μg/ml (10^−5 mol/l)
[15] = 1,8-cineole 3.0 μg/ml (2 × 10^−5 mol/l)

Compound: CC12CCC(CC1)C(C)(C)O2 [1,8-cineole, 1,3,3-trimethyl-2-oxabicyclo[2.2.2]octane]
- INT-formazan [1, 12]: 5364 ± 229 nmol/10^5
- comparison to control (%) [1, 12]: +27.6 ± 4%
- INT-formazan [1, 13]: 4099 ± 234 nmol/10^5
- comparison to control (%) [1, 13]: −2.5 ± 6%
- INT-formazan [1, 14]: 2438 ± 389 nmol/10^5
- comparison to control (%) [1, 14]: −42 ± 16%
- INT-formazan [1, 15]: 634 ± 139 nmol/10^5
- comparison to control (%) [1, 15]: −84.9 ± 22%
- outbreak of infection, especially hypercytokinemia [2]: prevented or reduced
- virus replication and production of hyperinflammatory cytokines in thrombocytes ([2]; healthy thrombocytes incubated with COVID-19, subsequently incubation with 1,8-cineole): inhibited
- course of infection, especially hypercytokinemia [3]: prevented or attenuated
- monocyte IL-1beta production, result in words ([4]; 10^−6 mol/l, compared with the control): significantly inhibited
- IL-1beta ([4]; 10^−6 mol/l, 20 hours): 3548 ± 600 pg/5 × 10^−4 cells
- effect vs. control inhibition (%) ([4]; 10^−6 mol/l, 20 hours): 32.4 ± 17%
- superoxide dismutase activity [5]: partially inhibited
- NO-production ([6]; low subtherapeutic concentrations of 1,8-cineole): inhibit NO-production
- NO-production ([6]; therapeutic dose range of 1,8-cineole): strong or significant stimulatory effects on NO-production
- solubility in water [7]: insoluble in water
- production of TNF-alpha [8]: significant inhibitory effect
- production of H2O2 [9]: inhibits
- production of IL-8 [10]: significant inhibitory effect

Compound: CCN(CC)CCCC(C)Nc1ccnc2cc(Cl)ccc12 (stereo not shown) [Chloroquine]
- efficacy in COVID-19 [11]: no evidence of efficacy

Compound: C[C@@H]1C[C@H]2[C@@H]3CCC4=CC(=O)C=C[C@]4(C)[C@@]3(F)[C@@H](O)C[C@]2(C)[C@@]1(O)C(=O)CO [dexamethasone, 9-fluoro-16alpha-methylprednisolone]
- IL-1beta ([4]; dex. 10^−9 mol/l): 2655 ± 546 pg/5 × 10^−4 cells
- effect vs. control inhibition (%) ([4]; dex. 10^−9 mol/l): 49.5 ± 20%
- IL-1beta ([4]; dex. 10^−12 mol/l): 5245 ± 1027 pg/5 × 10^−4 cells
- effect vs. control inhibition (%) ([4]; dex. 10^−12 mol/l): 0.1 ± 19%

Compound: CCN(CCO)CCCC(C)Nc1ccnc2cc(Cl)ccc12 (stereo not shown) [hydroxychloroquine]
- efficacy in COVID-19 [11]: no evidence of efficacy

Compound: Tocilizumab: monoclonal antibody approved for rheumatoid arthritis and cytokine release syndrome
- efficacy in COVID-19 [11]: ineffective
